We go through 3 compounds from patent US20170112784A1, “Method and Medicament for Pain Management” (priority 2007, published 2017).

In assay [1] the test system is horses. Description: Trial of methoxyflurane administered to horses at the end of anaesthesia to modify recovery. The arrangement: 1st Movt / Stern. / Stnd / Atax / Walk out: unit not given here. The format is in vivo, horse. The method, then: Trial of methoxyflurane administered to horses at the end of anaesthesia, attempting to modify recovery:
[…] Horses recovering from isoflurane typically attempt to stand in 10 to 15 minutes, usually fall down and try to get back up 2 or 3 times (sometimes violent, resulting in injuries from skin abrasions to fractured limbs) and are then standing 15 to 20 minutes after anaesthetic administration ceased. […] Halothane recoveries are less violent and result in less likelihood of injury.
Initially trials were also performed in anattempt to determine the dose and duration of MOF administration that would result in improved quality of recovery.
The last 8 horses were administered with ever lower doses of MOF for less time with better results (see table below). […] The lowest dose produced a good result.

Assay [2] relates to horses. Particulars: typical; cited from earlier work.
The mark [3] stands for this setting: horse 338 kgs, 30 Mins. HAL anaesthesia, Methoxy volume not given.
[4] abbreviates: horse 492 kgs, 90 Mins. HAL anaesthesia, Methoxy volume not given.
Where [5] appears, read: horse 472 kgs, 130 Mins. ISO anaesthesia, Methoxy volume not given.
Where [6] appears, read: horse 332 kgs, 135 Mins. ISO anaesthesia, Methoxy total 200 ml.
The mark [7] stands for this setting: horse 462 kgs, 135 Mins. ISO anaesthesia, Methoxy total 350 ml.
Setting [8] is: horse 470 kgs, 85 Mins. ISO anaesthesia, Methoxy total 210 ml.
Setting [9] is: horse 492 kgs, 75 Mins. ISO anaesthesia, Methoxy total 540 ml.
Setting [10] is: horse 580 kgs, 16O Mins. ISO anaesthesia, Methoxy total 300 ml.

Consider `FC(F)(F)C(Cl)Br` (centres unmarked) [HAL, halothane], for which, in the assay on horses [1] (setting [3]), the “1st Movt” value came to 27, the Atax entry is reported as “Fell”, the Comments result is “Stood/fell x 3” and the Stern. was 30. For the same compound, in the assay with horses [1] (setting [3]), the Stnd turned out to be 31 and the Walk out came to 55. Besides, in the assay on horses [1] (setting [4]), the “1st Movt” value is given as 30, the Atax is reported as 75, the Comments result is reported as “Poor - flip over” and the Stern. is 50(2). In the assay on horses [1] (setting [4]), this compound displayed a Stnd of 65 and a Walk out of 85. The “recovery duration in comparison with isoflurane” value with horses [2] was “twice as long as isoflurane”.
Take `FC(F)OC(Cl)C(F)(F)F` (centres unmarked) [ISO, isoflurane]: in the assay on horses [1] (setting [5]), the “1st Movt” value is reported as 23, the Atax is 78, the Comments result was “Try stand at 23” and the Stern. is 32. In the assay with horses [1] (setting [5]), this compound registered a Stnd of 63 and a Walk out of 100.
As to `COC(F)(F)C(Cl)Cl` [Methoxy, methoxyflurane], the “1st Movt” value was determined as 17 in the assay on horses [1] (setting [6]); 48 in the assay with horses [1] (setting [7]); 5 in the assay with horses [1] (setting [8]); 50 with horses [1] (setting [9]); 37 in the assay with horses [1] (setting [10]). Besides, the Atax in the assay on horses [1] (setting [6]) was 30; in the assay with horses [1] (setting [7]) it was 59; in the assay with horses [1] (setting [8]), 35; in the assay on horses [1] (setting [9]) it was 85; with horses [1] (setting [10]), 85. Moreover, the Comments result in the assay with horses [1] (setting [6]) is given as “Good”; with horses [1] (setting [7]) it was “Still 45 mm then”; in the assay on horses [1] (setting [8]), 10x wobble then; in the assay on horses [1] (setting [9]), “Stood 69- fell”. The Stern. in the assay on horses [1] (setting [6]) is given as 25; in the assay with horses [1] (setting [8]), 14; in the assay on horses [1] (setting [9]), 60; in the assay with horses [1] (setting [10]) it was 60. Further, the Stnd in the assay with horses [1] (setting [6]) came to 26; in the assay on horses [1] (setting [7]) it was 49; in the assay with horses [1] (setting [8]) it was 29; in the assay with horses [1] (setting [9]), 75; in the assay on horses [1] (setting [10]), 61. Moreover, the Walk out in the assay with horses [1] (setting [6]) worked out at 41; in the assay with horses [1] (setting [7]), 75; in the assay on horses [1] (setting [8]) it was 55; with horses [1] (setting [9]) it was 100; in the assay on horses [1] (setting [10]) it was 90. In addition, the quality of recovery entry in the assay with horses [1] (initial trials (higher dose, longer administration), horses after isoflurane anaesthesia) was “long recoveries with marked ataxia”; in the assay with horses [1] (last 8 horses, ever lower doses for less time) it was “less ataxia and a better quality recovery”; in the assay on horses [1] (lowest dose, last horse) it was “good result”.
